Series [1] addresses T1, APEH (partially purified from human red blood cells) (Homo sapiens, UniProt P13798).
T1 construct: incubated with APEH partially purified from human blood cells; from tissue; host or cells: human red blood cells (erythrocyte hemolysate from donors' blood)
T1 sequence (P13798 1-732): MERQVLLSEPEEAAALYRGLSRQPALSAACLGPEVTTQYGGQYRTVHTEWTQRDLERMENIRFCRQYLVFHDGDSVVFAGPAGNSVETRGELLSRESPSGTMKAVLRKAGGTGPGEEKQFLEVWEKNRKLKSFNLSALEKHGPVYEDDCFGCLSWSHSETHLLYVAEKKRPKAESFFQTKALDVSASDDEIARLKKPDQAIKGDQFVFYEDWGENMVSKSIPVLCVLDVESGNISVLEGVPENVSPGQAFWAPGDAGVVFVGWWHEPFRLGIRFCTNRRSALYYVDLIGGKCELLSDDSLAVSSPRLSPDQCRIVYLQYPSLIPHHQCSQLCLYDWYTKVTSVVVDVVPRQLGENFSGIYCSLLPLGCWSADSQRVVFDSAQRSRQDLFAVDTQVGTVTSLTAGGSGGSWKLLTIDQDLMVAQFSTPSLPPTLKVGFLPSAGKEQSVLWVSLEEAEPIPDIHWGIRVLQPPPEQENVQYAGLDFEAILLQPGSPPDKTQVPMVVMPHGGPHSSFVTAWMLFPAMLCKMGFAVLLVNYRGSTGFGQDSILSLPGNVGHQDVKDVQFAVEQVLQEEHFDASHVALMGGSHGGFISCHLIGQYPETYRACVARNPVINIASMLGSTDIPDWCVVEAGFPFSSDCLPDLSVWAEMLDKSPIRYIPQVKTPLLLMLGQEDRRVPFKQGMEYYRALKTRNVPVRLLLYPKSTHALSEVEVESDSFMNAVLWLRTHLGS
The series can be described thus: APEH enzyme inhibition assay with substrate Ac-Met-AMC. The format is biochemical. The conditions noted are these: inhibitor 62 µM, APEH sample 0.7 μg, pre-incubated 30 min at 37 °C, then Ac-Met-AMC added; data not shown. The method, then: Human APEH was obtained as a partially purified product from the red blood cells by a combination of anion exchange and gel filtration chromatography as described. The purification procedure was monitored by SDS-PAGE analysis of active pooled fractions (Supplementary Figure S3). Specifically, each peak fraction eluted from the gel filtration column was assayed with the specific APEH substrate Ac-Met-AMC and analyzed by Western blotting to assess the identity of the enzyme, using the commercial APEH from porcine liver (APEHpl) as control (Supplementary Figure S4A,B). The molecular mass determined by SDS-PAGE of the partially purified protein was 75 kDa, in agreement with that predicted on the basis of the amino acid sequence. Moreover, gel filtration chromatography on Superdex 200 column allowed estimating a molecular mass for the native APEH of […] as calculated by the calibration curve (Supplementary Figure S4A), confirming that the enzyme is a homo-tetramer composed of four 75 kDa subunits, as already reported.
Blood samples were taken from donors using syringes with heparin. […] Enzyme purification was monitored using Ac-Met-7-amino-4-methylcoumarin (AMC) as substrate. Active fractions were analyzed by SDS-PAGE (12%) in order to evaluate the enrichment of the protein during the various purification steps. […]

In series [2] the test system is truncated form of APEH. The settings on record: cited from earlier work.
Series [3] relates to APEH. The series can be described thus: APEH partially purified from human blood cells (0.7 μg, 24.000 total units) in Tris-HCl 25 mM pH 7.5. The conditions noted are these: 37 °C, up to 48 h.
The subject of series [4] is APEH. The settings on record: cited from earlier work.

“Also recorded” adds a separate entry of the source. Where two headings read alike, the source gives them in different places.

For `CC(C)CC(O)(CC(C)C)c1cnn(C(=O)N2CCCC2)n1` [AA74-1], the “inhibition of APEH activity” value in series [1] was “totally inhibited”.
On to GIVEQC(ox)C(ox)ASVC(ox)SLYQLENYC(ox)N, for which the cleaved bond result in series [2] was “A-S and Y-Q”.
As to Ac-EYM(ox)FM(ox)QKYPHTHLVQQA-NH2, the cleaved bond entry in series [3] is reported as “H59-L60, major; also recorded: Q62-Q; also recorded: L60-V”.
Take Ac-EYM(ox)FM(ox)QEYPHTHLVQQA-NH2: the not cleaved entry in series [3] is given as “did not undergo cleavage on Q62”.
Take Ac-EAM(ox)FM(ox)QKYPHTHLVQQA-NH2: in series [3], the cleaved bond entry was “Q62-Q; also recorded: H59-L”.
Ac-EYAAM(ox)QKYPHTHLVQQA-NH2: the cleaved bond result in series [3] is reported as “Q62-Q; also recorded: H59-L, major”.
Regarding Ac-EYAFAQKYPHTHLVQQA-NH2, the not cleaved in series [3] was 100% intact; N.D. (not degraded) after 48 h.
Regarding “…^205FGERALKAWSVARL ↓ SQKFPKAEF^227… …^397LGEYGFQNALIVRY ↓ TRKVPQVST^419… …^493DETYVPKAFDEKLF ↓ TFHADICTL^515…”, the cleaved bond result in series [4] is “L-S and Y-T and F-T”.
Consider Ac-EYMFMQKYPHTHLVQQA-NH2, for which the not cleaved result in series [3] is recorded as “No cleavage was observed; N.D. (not degraded) after 48 h”.

Source of the values: article PMC8745263 (International Journal of Molecular Sciences, 2021).
